Laboratory results: ChEMBL document CHEMBL3822390, “Synthesis, characterization and anti-cancer activity of a peptide nucleolipid bioconjugate” (2016)

Columns and labels:
Assay type in all cases: functional
[1] = Cytotoxicity against human SKOV3 cells assessed as cell growth at 10 uM after 48 hrs by SRB assay; conditions: SK-OV-3, 48 h, read-out: Activity
T47D = experiment: Cytotoxicity against human T47D cells assessed as cell growth at 10 uM after 48 hrs by SRB assay; conditions: read-out: Activity
[2] = Cytotoxicity against human SF268 cells assessed as cell growth at 10 uM after 48 hrs by SRB assay; conditions: SF-268, 48 h, read-out: Activity
NCI-H322M = experiment: Cytotoxicity against human NCI-H322M cells assessed as cell growth at 10 uM after 48 hrs by SRB assay; conditions: read-out: Activity
MCF7 [3] = experiment: Cytotoxicity against human MCF7 cells assessed as cell growth at 10 uM after 48 hrs by SRB assay; conditions: MCF7, 48 h, read-out: Activity
MDA-MB-468 = experiment: Cytotoxicity against human MDA-MB-468 cells assessed as cell growth at 10 uM after 48 hrs by SRB assay; conditions: MDA-MB-468, 48 h, read-out: Activity
[4] = Cytotoxicity against human COLO205 cells assessed as cell growth at 10 uM after 48 hrs by SRB assay; conditions: COLO 205, 48 h, read-out: Activity
[5] = Cytotoxicity against human HL-60(TB) cells assessed as cell growth at 10 uM after 48 hrs by SRB assay; conditions: HL-60, 48 h, read-out: Activity
[6] = Cytotoxicity against human OVCAR4 cells assessed as cell growth at 10 uM after 48 hrs by SRB assay; conditions: OVCAR-4, 48 h, read-out: Activity
U-251 = experiment: Cytotoxicity against human U251 cells assessed as cell growth at 10 uM after 48 hrs by SRB assay; conditions: U-251, 48 h, read-out: Activity
[7] = Cytotoxicity against human HCT15 cells assessed as cell growth at 10 uM after 48 hrs by SRB assay; conditions: HCT-15, 48 h, read-out: Activity
A549 [8] = experiment: Cytotoxicity against human A549 cells assessed as cell mortality at 10 uM after 48 hrs by SRB assay; conditions: A549, 48 h
EKVX = experiment: Cytotoxicity against human EKVX cells assessed as cell growth at 7.25 uM after 48 hrs by SRB assay; conditions: read-out: Activity
NCI-H460 = experiment: Cytotoxicity against human NCI-H460 cells assessed as cell growth at 7.25 uM after 48 hrs by SRB assay; conditions: NCI-H460, 48 h, read-out: Activity
MCF7 [9] = experiment: Cytotoxicity against human MCF7 cells assessed as cell growth at 7.25 uM after 48 hrs by SRB assay; conditions: MCF7, 48 h, read-out: Activity
Malme-3M = experiment: Cytotoxicity against human MALME-3M cells assessed as cell growth at 7.25 uM after 48 hrs by SRB assay; conditions: read-out: Activity
[10] = Cytotoxicity against human SW620 cells assessed as cell growth at 7.25 uM after 48 hrs by SRB assay; conditions: SW-620, 48 h, read-out: Activity
ACHN = experiment: Cytotoxicity against human ACHN cells assessed as cell growth at 7.25 uM after 48 hrs by SRB assay; conditions: read-out: Activity
A549 [11] = experiment: Cytotoxicity against human A549 cells assessed as cell growth at 7.25 uM after 48 hrs by SRB assay; conditions: A549, 48 h, read-out: Activity
[12] = Cytotoxicity against human HCT15 cells assessed as cell growth at 7.25 uM after 48 hrs by SRB assay; conditions: HCT-15, 48 h, read-out: Activity
[13] = Cytotoxicity against human RXF393 cells assessed as cell growth at 7.25 uM after 48 hrs by SRB assay; conditions: RXF 393, 48 h, read-out: Activity
A549 [14] = experiment: Cytotoxicity against human A549 cells assessed as cell mortality at 2.13 uM after 48 hrs by SRB assay; conditions: A549, 48 h
[15] = Cytotoxicity against human SKOV3 cells assessed as cell growth at 2.13 uM after 48 hrs by SRB assay; conditions: SK-OV-3, 48 h, read-out: Activity
[16] = Cytotoxicity against human Caki1 cells assessed as cell growth at 2.13 uM after 48 hrs by SRB assay; conditions: CAKI-1, 48 h, read-out: Activity
MDA-MB-435 = experiment: Cytotoxicity against human MDA-MB-435 cells assessed as cell growth at 2.13 uM after 48 hrs by SRB assay; conditions: MDA-MB-435, 48 h, read-out: Activity
[17] = Cytotoxicity against human HOP92 cells assessed as cell growth at 2.13 uM after 48 hrs by SRB assay; conditions: HOP-92, 48 h, read-out: Activity
[18] = Cytotoxicity against human HCC2998 cells assessed as cell growth at 2.13 uM after 48 hrs by SRB assay; conditions: HCC 2998, 48 h, read-out: Activity

Work on `CC(C)C[C@H](NC(=O)[C@H](CCCCN)NC(=O)[C@H](C)NC(=O)[C@H](CC(C)C)NC(=O)[C@H](CCCCN)NC(=O)[C@H](CCCCN)NC(=O)[C@H](C)NC(=O)[C@H](CC(C)C)NC(=O)[C@H](CCCCN)NC(=O)[C@H](C)NC(=O)[C@H](CC(C)C)NC(=O)[C@H](CCCCN)NC(=O)[C@@H](N)CC(=O)O)C(=O)N[C@@H](C)C(=O)N[C@@H](CCCCN)C(=O)N[C@@H](C)C(=O)N[C@@H](CCCCN)C(N)=O` yielded a growth at 10 µM [1] of 98.7%, a growth at 10 µM (T47D) of 113% and a growth at 10 µM [2] of 94.7%. It also gave a growth at 10 µM (NCI-H322M) of 110%, a growth at 10 µM (MCF7 [3]) of 96.7% and a growth at 10 µM (MDA-MB-468) of 100%. It also gave a growth at 10 µM [4] of 114%, a growth at 10 µM [5] of 99.5% and a growth at 10 µM [6] of 109%. It also gave a growth at 10 µM (U-251) of 94.6%, a growth at 10 µM [7] of 108% and a mortality at 10 µM (A549 [8]) of 19%.
Compound `CCCCCCCCCCCCCCCC(=O)NCCCC[C@H](NC(=O)[C@H](C)NC(=O)[C@H](CCCCN)NC(=O)[C@H](C)NC(=O)[C@H](CC(C)C)NC(=O)[C@H](CCCCN)NC(=O)[C@H](C)NC(=O)[C@H](CC(C)C)NC(=O)[C@H](CCCCN)NC(=O)[C@H](CCCCN)NC(=O)[C@H](C)NC(=O)[C@H](CC(C)C)NC(=O)[C@H](CCCCN)NC(=O)[C@H](C)NC(=O)[C@H](CC(C)C)NC(=O)[C@H](CCCCN)NC(=O)[C@@H](N)CC(=O)O)C(N)=O` has a growth at 7.25 µM (EKVX) of 105%, a growth at 7.25 µM (NCI-H460) of 107% and a growth at 7.25 µM (MCF7 [9]) of 98.7%. It also gave a growth at 7.25 µM (Malme-3M) of 102%, a growth at 7.25 µM [10] of 107% and a growth at 7.25 µM (ACHN) of 99.3%. For the same compound, the growth at 7.25 µM (A549 [11]) was 67.6%, the growth at 7.25 µM [12] was 109% and the growth at 7.25 µM [13] was 111%.
`CCCCCCCCCCCCCCCCNCCO[C@H]1C[C@H](n2cc(C)c(=O)[nH]c2=O)O[C@@H]1C(=O)NCCCC[C@H](NC(=O)[C@H](C)NC(=O)[C@H](CCCCN)NC(=O)[C@H](C)NC(=O)[C@H](CC(C)C)NC(=O)[C@H](CCCCN)NC(=O)[C@H](C)NC(=O)[C@H](CC(C)C)NC(=O)[C@H](CCCCN)NC(=O)[C@H](CCCCN)NC(=O)[C@H](C)NC(=O)[C@H](CC(C)C)NC(=O)[C@H](CCCCN)NC(=O)[C@H](C)NC(=O)[C@H](CC(C)C)NC(=O)[C@H](CCCCN)NC(=O)[C@@H](N)CC(=O)O)C(N)=O` showed a mortality at 2.13 µM (A549 [14]) of 31%, a growth at 2.13 µM [15] of 98.4% and a growth at 2.13 µM [16] of 96.1%. It also gave a growth at 2.13 µM (MDA-MB-435) of 109%, a growth at 2.13 µM [17] of 86.8% and a growth at 2.13 µM [18] of 104%.
